# Assay results as given in PubChem BioAssay AID504313 (Emory University Molecular Libraries Screening Center, 2011).
# The source made the active and inactive calls. No rule for the calls is given here.
# Target: X-box-binding protein 1 (Homo sapiens) (UniProt P17861)
# Assay: XBP1 reporter suppression in cells – counter-screen, dose response (AID 504313);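 also: CHO cells carrying an XBP1 reporter stimulated with tunicamycin; potency is for inhibition of the tunicamycin-induced reporter signal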
# Conditions: XBP1 reporter cell assay, percent of control
row,Compound,IC50
1,CCCCCCCCCCCCCCCC[n+]1cccc2ccccc21,< 0.16 µM (inactive)
2,CCCCC(CC)Cn1c2nc3ccccc3nc2c2c(=N)oc(C)nc21 (stereo not drawn),> 10 µM (inactive)
3,O=C1C(Nc2ccccc2)=C/C(=N/S(=O)(=O)c2cccs2)c2ccccc21,1.17 µM
4,CC(C)(C)c1nnc(N/N=C/c2cc(Br)ccc2O)n(N)c1=O,6.02 µM
5,CCOc1cc(/C=N/NC(=O)COc2cccc(C)c2)ccc1OC(=O)c1cccs1,> 10 µM (inactive)
6,COc1ccc(CNc2oc(-c3cccc4ccccc34)nc2C#N)cc1,> 10 µM (inactive)
7,COC(=O)c1ccccc1NC1=C/C(=N\S(=O)(=O)c2cccs2)c2ccccc2C1=O,inactive
8,O=c1cc(-c2c(F)c(F)c(F)c(F)c2F)oc2c(F)c(F)c(F)c(F)c12,4.69 µM
9,CC1=Nc2nc(N3CCCCC3)c(C#N)c3c4c(nc(c23)N1)N(c1ccc(C(C)C)cc1)C(=O)C4,inactive
10,Cc1nc(NC(=O)CSc2nc3cccnc3n2Cc2ccccc2)sc1C,> 10 µM (inactive)
11,O=S(=O)(NCC(Nc1ccc(Cl)cc1)c1ccccc1)c1ccc(Cl)cc1 (stereo not drawn),> 10 µM (inactive)
12,C/C(=C\c1ccco1)C1C(C#N)=C(N)Oc2n[nH]c(-c3ccc(C)cc3)c21 (stereo not drawn),> 10 µM (inactive)
13,Cc1nc(SCC(=O)Nc2ccc(C)c(F)c2)c2oc3ccccc3c2n1,> 10 µM (inactive)
14,Cc1ccccc1N1CCN(C(=O)c2ccc(Oc3ccc(C(F)(F)F)cn3)cc2)CC1,2.48 µM
15,Cc1ccc(C2(c3ccc(C)cc3)CC2C(=O)Nc2ccc([N+](=O)[O-])cc2O)cc1 (stereo not drawn),inactive
16,CC(=O)NCc1ccc(C(=O)CCl)s1,inactive
17,Cc1ccc(C(=O)CC(=O)c2cc(Cl)ccc2O)cc1,inactive
18,COCCn1cnc2c(c1=O)c1nc3ccccc3nc1n2/N=C/c1cccc(OC)c1,inactive
19,CC(C)(C)OC(=O)NCCc1nnc(S(=O)(=O)Cc2ccc(Cl)cc2Cl)o1,4.44 µM
20,O=C1NC(=S)S/C1=C\C=C\c1ccc([N+](=O)[O-])o1,inactive
21,Cc1cc(C)n(-c2nc(Nc3ccccc3C(F)(F)F)nc(-n3nc(C)cc3C)n2)n1,inactive
22,CCCCc1nc(NCCN)c(C#N)c2c1CSC(C)(C)C2,inactive
23,O=C1C(=O)c2ccc(-c3ccccc3)cc2-c2ccccc21,3.26 µM
24,O=C(Nc1ccc(C(F)(F)F)cc1)c1cc(-c2cccnc2)nc2ccc(Br)cc12,> 10 µM (inactive)

row,Compound,IC50
1,CS(=O)(=O)c1nc(-c2cccs2)cc(C(F)(F)F)n1,inactive
2,COC(=O)[C@@H]1[C@@H](C(=O)OC)C2(c3ccccc3-c3ccccc32)N(c2ccc(Cl)cc2)N1C#N,> 10 µM (inactive)
3,CCOc1ccc(N2C(=O)/C(=C\c3ccc(O)c(OC)c3)S(=O)(=O)C2c2cccc([N+](=O)[O-])c2)cc1 (stereo not drawn),> 10 µM (inactive)
4,O=S(=O)(N/N=C/c1ccc(Cl)cc1)c1ccc(Cc2ncc(C(F)(F)F)cc2Cl)s1,inactive
5,Cc1ccccc1Oc1cc(-n2ncc(Cl)c(Cl)c2=O)ncn1,1.75 µM
6,CCNC(=S)N/N=C/c1cc(Br)cc(Br)c1OC,> 10 µM (inactive)
7,C=CCn1c(SCC(=O)Nc2ccc(-c3nc4ccc(C)cc4s3)cc2)nnc1-c1ccccc1,> 10 µM (inactive)
8,Cc1nn(-c2ccccc2)c(Cl)c1CN(C(=O)CCl)c1ccc(Cl)cc1,3.3 µM
9,S=c1[nH]nc(C2CCCCC2)n1/N=C/C=C/c1ccccc1,> 10 µM (inactive)
10,CCCCCn1c(SCCC(C)C)nc2c1c(=O)[nH]c(=O)n2C,inactive
11,C=CCn1c(SCC(=O)c2[nH]c(C)c(C(=O)OC)c2C)nc2scc(-c3ccc(OC)c(OC)c3)c2c1=O,inactive
12,COc1ccc(-c2[nH]ncc2N=Nc2cc(C)cc(C)c2)cc1,> 10 µM (inactive)
13,Cc1ccc(Nc2nc(N)c([N+](=O)[O-])c(N3CCC(C)CC3)n2)cc1C,inactive
14,N#C/C(=C\c1ccc([N+](=O)[O-])o1)C(=O)Nc1ccc(F)cc1,> 10 µM (inactive)
15,COc1ccc(N/N=C(\C=N\O)C(=O)c2ccc(OC)cc2)cc1,> 10 µM (inactive)
16,O=C(NNC(=O)c1cccc2ccccc12)c1ccc(-c2ccccc2)cc1,> 10 µM (inactive)
17,CCc1ccc2c(c1)C(c1ccc([N+](=O)[O-])cc1)=NNC(c1ccc(C)cc1)=N2,> 10 µM (inactive)
18,CC(C)c1ccc(O)c(NC(=S)NC(=O)CCc2ccccc2)c1,inactive
19,O=C(Nc1ccc(Cl)cc1)Nc1ccc(N2CCCC2)c(S(=O)(=O)Nc2ccccc2Cl)c1,inactive
20,COc1cc(C(=O)O/N=C2\C=CC(=O)C(C)=C2)cc(OC)c1OC,> 10 µM (inactive)
21,Nc1cc(Cl)c2nonc2c1[N+](=O)[O-],inactive
22,CC1C/C(=C/c2ccccn2)C(=O)/C(=C/c2ccccn2)C1 (stereo not drawn),2.68 µM
23,Cc1ccc(/C=N/NC(=O)CCCOc2ccc(Cl)cc2Cl)cc1,> 10 µM (inactive)
24,Cc1cccc(NC2=C/C(=N/S(=O)(=O)c3cccs3)c3ccccc3C2=O)c1,1.31 µM
